Results as given in patent publication US8912206B2, “Pyrimidine ether derivatives and methods of use thereof” (Merck Sharp & Dohme Corp., priority 2009, dated 2014).

What follows are compounds tested against T1, human GPR119 (Homo sapiens, UniProt Q8TDV5) (assay: cAMP assay (LANCE cAMP kit), activation of GPR119). Conditions: HEK293 cells expressing human GPR119, 30 minutes incubation.
T1 construct: expressed in transfected cells; host or cells: HEK293
T1 sequence (Q8TDV5 1-335): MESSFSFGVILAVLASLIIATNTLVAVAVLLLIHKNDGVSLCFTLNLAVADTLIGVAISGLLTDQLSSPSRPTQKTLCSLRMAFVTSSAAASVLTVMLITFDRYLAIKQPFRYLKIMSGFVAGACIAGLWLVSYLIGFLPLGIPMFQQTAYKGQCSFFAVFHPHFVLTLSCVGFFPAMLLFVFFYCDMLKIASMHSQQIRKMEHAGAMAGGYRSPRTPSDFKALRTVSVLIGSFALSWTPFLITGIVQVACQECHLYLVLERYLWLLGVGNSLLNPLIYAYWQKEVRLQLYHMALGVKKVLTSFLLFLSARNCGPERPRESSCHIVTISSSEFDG
Assay type: cell-based
Protocol: The ability of illustrative compounds of the invention to activate GPR119 and stimulate increases in cAMP levels was determined using the LANCE™ cAMP kit (Perkin Elmer). HEK293 cells expressing human GPR119 were maintained in culture flasks at 37° C./5% CO2 in DMEM containing 10% fetal bovine serum, 100 U/ml Pen/Strep, and 0.5 mg/ml geneticin. The media was changed to Optimem and cells were incubated for about 15 hours at 37° C./5% CO2. The Optimem was then aspirated and the cells were removed from the flasks using room temperature Hank's balanced saline solution (HBSS). The cells were pelleted using centrifugation (1300 rpm, 7 minutes, room temperature), then resuspended in stimulation buffer (HBSS, 0.1% BSA, 5 mM HEPES, 15 μM RO-20) at 2.5×10^6 cells/mL. Alexa Fluor 647-anti cAMP antibody (1:100) was then added to the cell suspension and incubated for 30 minutes. A representative Pyrimidine Ether Derivative (6 μl at 2× concentration) in stimulation buffer containing 2% DMSO were then added to white 384 well Matrix plates. Cell suspension mix (6 μl) was added to each well and incubated with the Pyrimidine Ether Derivative for 30 minutes. A cAMP standard curve was also created in each assay according to the kit protocol. Standard concentrations of cAMP in stimulation buffer (6 μl) were added to white 384 well plates. Subsequently, 6 μl of 1:100 anti-cAMP antibody was added to each well. Following the 30 minute incubation period, 12 μl of detection mix (included in kit) was added to all wells and incubated for 2-3 hours at room temperature. Fluorescence was detected on the plates using an Envision instrument. The level of cAMP in each well is determined by extrapolation from the cAMP standard curve.

Structure (SMILES)	EC50 [µM]
CC(C)(C)OC(=O)N1CCC(Oc2ncnc(OC3C4COCC3CN(C(=O)OC3(C)CC3)C4)c2F)CC1 (stereo not drawn) [Compound 1]	0.5 to 1
CC1(OC(=O)N2CC3COCC(C2)C3Oc2ncnc(OC3CCN(S(C)(=O)=O)CC3)c2F)CC1 (stereo not drawn) [Compound 2]	0.1 to 0.2
CC1(OC(=O)N2CC3COCC(C2)C3Oc2ncnc(OC3CCN(S(=O)(=O)CCC(F)(F)F)CC3)c2F)CC1 (stereo not drawn) [Compound 3]	< 0.1
CC1(OC(=O)N2CC3COCC(C2)C3Oc2ncnc(OC3CCN(S(=O)(=O)C4CC4)CC3)c2F)CC1 (stereo not drawn) [Compound 4]	0.1 to 0.2
CC(C)S(=O)(=O)N1CCC(Oc2ncnc(OC3C4COCC3CN(C(=O)OC3(C)CC3)C4)c2F)CC1 (stereo not drawn) [Compound 5]	< 0.1
CC1(OC(=O)N2CC3COCC(C2)C3Oc2ncnc(OC3CCN(S(=O)(=O)C(F)(F)F)CC3)c2F)CC1 (stereo not drawn) [Compound 6]	0.5 to 1
CC1(OC(=O)N2CC3COCC(C2)C3Oc2ncnc(OC3CCN(S(=O)(=O)C4CCCC4)CC3)c2F)CC1 (stereo not drawn) [Compound 7]	0.1 to 0.2
COCCS(=O)(=O)N1CCC(Oc2ncnc(OC3C4COCC3CN(C(=O)OC3(C)CC3)C4)c2F)CC1 (stereo not drawn) [Compound 8]	0.1 to 0.2

Other lines, results leading:

EC50 [µM]	Structure (SMILES)
0.5 to 1	CC(C)C(=O)N1CCC(Oc2ncnc(OC3C4COCC3CN(C(=O)OC3(C)CC3)C4)c2F)CC1 (stereo not drawn) [Compound 9]
< 0.1	CS(=O)(=O)N1CCC(Oc2ncnc(OC3C4COCC3CN(c3ncc(Cl)cn3)C4)c2F)CC1 (stereo not drawn) [Compound 10]
< 0.1	CCCS(=O)(=O)N1CCC(Oc2ncnc(OC3C4COCC3CN(C(=O)OC3(C)CC3)C4)c2F)CC1 (stereo not drawn) [Compound 11]
< 0.1	CCS(=O)(=O)N1CCC(Oc2ncnc(OC3C4COCC3CN(C(=O)OC3(C)CC3)C4)c2F)CC1 (stereo not drawn) [Compound 12]
